One experiment addresses T1, rat NaP2b (SLC34A2) (Rattus norvegicus, UniProt Q9JJ09).
T1 construct: host or cells: HEK293
T1 sequence (Q9JJ09 1-695): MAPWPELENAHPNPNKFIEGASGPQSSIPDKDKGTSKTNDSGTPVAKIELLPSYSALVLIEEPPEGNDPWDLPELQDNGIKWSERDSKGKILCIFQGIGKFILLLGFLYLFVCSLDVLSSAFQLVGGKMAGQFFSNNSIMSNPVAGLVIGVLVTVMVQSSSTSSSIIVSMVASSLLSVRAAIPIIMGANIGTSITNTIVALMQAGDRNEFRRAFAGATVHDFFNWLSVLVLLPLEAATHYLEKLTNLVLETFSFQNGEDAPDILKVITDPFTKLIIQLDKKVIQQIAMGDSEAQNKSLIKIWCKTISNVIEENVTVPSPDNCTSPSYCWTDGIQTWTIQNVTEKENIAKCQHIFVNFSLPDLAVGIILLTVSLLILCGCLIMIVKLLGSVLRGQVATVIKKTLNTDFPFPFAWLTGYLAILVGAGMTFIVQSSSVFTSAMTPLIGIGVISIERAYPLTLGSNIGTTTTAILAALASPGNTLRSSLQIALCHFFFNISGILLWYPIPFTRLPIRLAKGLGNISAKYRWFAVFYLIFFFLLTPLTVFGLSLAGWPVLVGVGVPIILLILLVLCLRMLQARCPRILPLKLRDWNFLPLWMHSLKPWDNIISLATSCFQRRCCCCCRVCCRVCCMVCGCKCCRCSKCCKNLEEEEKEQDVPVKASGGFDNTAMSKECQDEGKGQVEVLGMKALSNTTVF
Briefly: Inhibition of NaP2b-mediated Pi (33P) uptake in transfected HEK293 cells, rat NaP2b. As to conditions: 33P Pi uptake, 0.1 mM phosphate, value given as pIC50 range. Type of experiment: cell-based. In a few lines: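 The cells transiently expressed NaP2b after Lipofectamine transfection. Each compound was run in duplicate over twelve concentrations, 0.1 nM–30 uM.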

For the next experiment, the target named is T2, human NaP2b (SLC34A2) (Homo sapiens, UniProt O95436).
T2 construct: host or cells: HEK293
T2 sequence (O95436 1-690): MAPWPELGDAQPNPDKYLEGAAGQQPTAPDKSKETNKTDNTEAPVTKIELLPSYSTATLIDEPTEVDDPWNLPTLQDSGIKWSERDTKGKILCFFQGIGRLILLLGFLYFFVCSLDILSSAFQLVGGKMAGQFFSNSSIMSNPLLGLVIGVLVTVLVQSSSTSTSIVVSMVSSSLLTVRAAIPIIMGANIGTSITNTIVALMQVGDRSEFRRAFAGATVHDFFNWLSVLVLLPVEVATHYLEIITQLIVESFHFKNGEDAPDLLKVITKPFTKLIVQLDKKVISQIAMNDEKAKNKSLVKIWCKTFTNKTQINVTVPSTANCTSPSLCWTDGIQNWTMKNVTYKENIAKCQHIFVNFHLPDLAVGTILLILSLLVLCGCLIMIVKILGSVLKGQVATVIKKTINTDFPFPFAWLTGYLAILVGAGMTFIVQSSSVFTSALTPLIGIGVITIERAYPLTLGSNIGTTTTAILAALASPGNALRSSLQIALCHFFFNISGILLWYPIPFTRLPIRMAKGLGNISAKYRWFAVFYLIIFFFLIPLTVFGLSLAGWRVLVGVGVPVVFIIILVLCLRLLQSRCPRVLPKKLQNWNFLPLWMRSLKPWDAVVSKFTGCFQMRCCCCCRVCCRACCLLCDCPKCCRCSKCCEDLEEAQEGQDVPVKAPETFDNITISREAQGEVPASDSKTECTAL
Briefly: Inhibition of NaP2b-mediated Pi (33P) uptake in transfected HEK293 cells, human NaP2b. The class given is cell-based. The settings on record: read-out: pIC50 range for human NaP2b (converted). In a few lines:
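Uptake of 33P-phosphate (100 uM KH2PO4 carrier, sodium vs choline buffer, pH 7.4) measured after 3-30 min at room temperature, with test compound at twelve concentrations from 0.1 nM to 30 uM in duplicate. Cells were HEK293 transfected with mutated human NaP2b (Thr insertion after 37, N39D) and treated with a PiT-silencing agent. pIC50 values from scintillation counts.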

Where a name gives a salt, the structure may show the parent alone.

Consider `CCN(CC)c1ccc(NC(=O)c2cccc(CSCCOCCOCCOCCOCCOCCOCCOCCOCCC(=O)O)c2)c(-c2cc(C(=O)NCc3cccc(C(F)(F)F)c3)ccn2)c1` [Example 166, 1-(3-(4-(diethylamino)-2-(4-(3-(trifluoromethyl)benzylcarbamoyl)pyridin-2-yl)phenylcarbamoyl)phenyl)-5,8,11,14,17,20,23,26-octaoxa-2-thianonacosan-29-oic acid], for which the IC50 on rat NaP2b (SLC34A2) and on human NaP2b (SLC34A2) was 1000 to 7940 nM each time.
On to `CCN(CC)c1ccc(NC(=O)c2cccc(CCCOCCOCCOCCOCCOCCC(=O)O)c2)c(-c2cc(C(=O)NCc3cccc(C(F)(F)F)c3)ccn2)c1` [Example 300, 19-(3-(4-(diethylamino)-2-(4-(3-(trifluoromethyl)benzylcarbamoyl)pyridin-2-yl)phenylcarbamoyl)phenyl)-4,7,10,13,16-pentaoxanonadecan-1-oic acid], for which the IC50 against rat NaP2b (SLC34A2) was 1000 to 7940 nM; at human NaP2b (SLC34A2) it was below 1000 nM.
Regarding `CN(CCN1CCOCC1)C(=O)c1cccc(C(=O)Nc2ccc(N3CCCCC3)cc2-c2cc(C(=O)NCc3cccc(C(F)(F)F)c3)ccn2)c1` [Example 80, N1-Methyl-N1-(2-morpholinoethyl)-N3-(4-(piperidin-1-yl)-2-(4-((3-(trifluoromethyl)benzyl)carbamoyl)pyridin-2-yl)phenyl)isophthalamide], the IC50 against rat NaP2b (SLC34A2) and at human NaP2b (SLC34A2) was 1000 to 7940 nM throughout.
`CCN(CC)c1ccc(NC(=O)c2cccc(C(=O)N(C)CCOCCOCCOCCC(=O)O)c2)c(-c2cc(C(=O)NCc3cccc(C(F)(F)F)c3)ccn2)c1` [Example 188, 1-(3-((4-(diethylamino)-2-(4-((3-(trifluoromethyl)benzyl)carbamoyl)pyridin-2-yl)phenyl)carbamoyl)phenyl)-2-methyl-1-oxo-5,8,11-trioxa-2-azatetradecan-14-oic acid]: the IC50 at rat NaP2b (SLC34A2) and on human NaP2b (SLC34A2) was 1000 to 7940 nM in each case.
With `O=C(O)CCOCCOCCOCCOCCCc1cccc(C(=O)Nc2ccc(N3CCCCC3)cc2-c2cc(C(=O)N[C@H]3CCCc4ccccc43)ccn2)c1` [Example 252, 3-(2-(2-(2-(3-(3-((2-(4-(((S)-1,2,3,4-tetrahydronaphthalen-1-yl)carbamoyl)pyridin-2-yl)-4-(piperidin-1-yl)phenyl)carbamoyl)phenyl)propoxy)ethoxy)ethoxy)ethoxy)propanoic acid], the IC50 on rat NaP2b (SLC34A2) and at human NaP2b (SLC34A2) was below 1000 nM each time.
`CN(CCOCCOCCOCCC(=O)O)C(=O)Cc1cccc(SCc2cccc(C(=O)Nc3ccc(N4CCCCC4)cc3-c3cc(C(=O)NCc4cccc(C(F)(F)F)c4)ccn3)c2)c1` [Example 138]: the IC50 at rat NaP2b (SLC34A2) and on human NaP2b (SLC34A2) was 1000 to 7940 nM in each case.
In the case of `CCN(CC)c1ccc(NC(=O)c2cccc(C(=O)N(C)CCN(CCOC)CCOCCOCCOCCOCCOCCOCCOC)c2)c(-c2cc(C(=O)NCc3cccc(C(F)(F)F)c3)ccn2)c1` [Example 335, N^1-(4-(Diethylamino)-2-(4-(3-(trifluoromethyl)benzylcarbamoyl)pyridin-2-yl)phenyl)-N^3-(23-(2-methoxyethyl)-2,5,8,11,14,17,20-heptaoxa-23-azapentacosan-25-yl)-N^3-methylisophthalamide, trifluoroacetate], the IC50 at rat NaP2b (SLC34A2) and on human NaP2b (SLC34A2) was 1000 to 7940 nM in each case.
Regarding `CCN(CC)c1ccc(NC(=O)c2cccc(CCCOCCOCCOCCOCCOCCOCCOCCOCCOC)c2)c(-c2cc(C(=O)NCc3cccc(C(F)(F)F)c3)ccn2)c1` [Example 269, 2-(2-(3-(2,5,8,11,14,17,20,23,26-nonaoxanonacosan-29-yl)benzamido)-5-(diethylamino)phenyl)-N-(3-(trifluoromethyl)benzyl)isonicotinamide], the IC50 against rat NaP2b (SLC34A2) was 1000 to 7940 nM; on human NaP2b (SLC34A2) it was below 1000 nM.
The like results for `CCN(CC)c1ccc(NC(=O)c2cccc(CSc3cccc(CC(=O)N(C)CCOCCOCCOCCC(=O)O)c3)c2)c(-c2cc(C(=O)NCc3cccc(C(F)(F)F)c3)ccn2)c1` [Example 144, 3-(2-(2-(2-(2-(3-(3-(4-(diethylamino)-2-(4-(3-(trifluoromethyl)benzylcarbamoyl)pyridin-2-yl)phenylcarbamoyl)benzylthio)phenyl)-N-methylacetamido)ethoxy)ethoxy)ethoxy)propanoic acid] were, in that order, below 1000 nM and below 1000 nM.
As to `O=C(O)CCOCCOCCOCCNC(=O)c1cccc2c1ccn2Cc1cccc(C(=O)Nc2ccc(N3CCCCC3)cc2-c2cc(C(=O)N[C@H]3CCCc4ccccc43)ccn2)c1` [Example 181, (S)-1-oxo-1-(1-(3-(4-(piperidin-1-yl)-2-(4-(1,2,3,4-tetrahydronaphthalen-1-ylcarbamoyl)pyridin-2-yl)phenylcarbamoyl)benzyl)-1H-indol-4-yl)-5,8,11-trioxa-2-azatetradecan-14-oic acid], the IC50 against rat NaP2b (SLC34A2) and at human NaP2b (SLC34A2) was below 1000 nM throughout.
Take `CCN(CC)c1ccc(NC(=O)c2cccc(CSCCOCCOCCOCCOCCC(=O)O)c2)c(-c2cc(C(=O)NCc3cccc(C(F)(F)F)c3)ccn2)c1` [Example 162, 1-(3-(4-(diethylamino)-2-(4-(3-(trifluoromethyl)benzylcarbamoyl)pyridin-2-yl)phenylcarbamoyl)phenyl)-5,8,11,14-tetraoxa-2-thiaheptadecan-17-oic acid]: the IC50 against rat NaP2b (SLC34A2) and at human NaP2b (SLC34A2) was below 1000 nM in each case.
On to `CCCN(CCC)c1ccc(NC(=O)c2cccc(COCCOCCOCCOCCOCCOCCOCCOCCOC)c2)c(-c2cc(C(=O)NCc3cccc(C(F)(F)F)c3)ccn2)c1` [Example 200, 2-(2-(3-(2,5,8,11,14,17,20,23,26-nonaoxaheptacosyl)benzamido)-5-(dipropylamino)phenyl)-N-(3-(trifluoromethyl)benzyl)isonicotinamide], for which the IC50 against rat NaP2b (SLC34A2) was 1000 to 7940 nM; at human NaP2b (SLC34A2) it was below 1000 nM.
Consider `CCN(CC)c1ccc(NC(=O)c2cccc(CCCOCCOCCOCCOCCC(=O)O)c2)c(-c2cc(C(=O)NCc3cccc(C(F)(F)F)c3)ccn2)c1` [Example 251, 16-(3-(4-(diethylamino)-2-(4-(3-(trifluoromethyl)benzylcarbamoyl)pyridin-2-yl)phenylcarbamoyl)phenyl)-4,7,10,13-tetraoxahexadecan-1-oic acid], for which the results for the IC50 on rat NaP2b (SLC34A2) and on human NaP2b (SLC34A2) were 1000 to 7940 nM and below 1000 nM, respectively.
The like results for `CCN(CC)c1ccc(NC(=O)c2cccc(CSCCOCCOCCOCCOCCOCCOCCOCCOC)c2)c(-c2cc(C(=O)N[C@H]3CCCc4ccccc43)ccn2)c1` [Example 286, (S)-2-(2-(3-(2,5,8,11,14,17,20,23-octaoxa-26-thiaheptacosan-27-yl)benzamido)-5-(diethylamino)phenyl)-N-(1,2,3,4-tetrahydronaphthalen-1-yl)isonicotinamide] were, in that order, below 1000 nM and below 1000 nM.
For `O=C(NCc1cccc(C(F)(F)F)c1)c1ccnc(-c2cc(N3CCCCC3)ccc2NC(=O)c2cccc(CSc3ccc(C(=O)O)c(Br)c3)c2)c1` [Example 8.21] the same measures were 1000 to 7940 nM and 1260 nM.
For `CCN(CC)c1ccc(NC(=O)c2cccc(CCCOCCOCCOCCOCCNS(=O)(=O)c3ccc(C(=O)N(CCOC)CCOCCOCCOCCOCCOCCOCCOC)cc3)c2)c(-c2cc(C(=O)NCc3cccc(C(F)(F)F)c3)ccn2)c1` [Example 272, 2-(2-(3-(1-(4-(2,5,8,11,14,17,20-heptaoxadocosan-22-yl(2-methoxyethyl)carbamoyl)phenylsulfonamido)-3,6,9,12-tetraoxapentadecan-15-yl)benzamido)-5-(diethylamino)phenyl)-N-(3-(trifluoromethyl)benzyl)isonicotinamide] the same measures were 1000 to 7940 nM and 1000 to 7940 nM.

The values above are taken from patent publication US20140023611A1 (priority 2010, published 2014).
